{"source": "patent US9079866B2", "about": "“Flap modulators” (JANSSEN PHARMACEUTICA NV, priority 2013, dated 2015)", "note": "Where a name gives a salt, the structure may show the parent alone.", "data": [{"test_system": "leukotriene pathway in human whole blood (LTB4 levels)", "assay": "Human whole blood assay (A23187-stimulated LTB4)", "assay_type": "cell-based", "settings": "Homo sapiens, human whole blood diluted 1:1, A23187-stimulated; read-out: LTB4 IC50 1:1", "description": "(§1) The ability of the compounds of the present invention to treat a FLAP-mediated disease and/or disorder, or associated symptoms or complications thereof, was determined using the following procedures. Binding assay data represent the average value obtained from two different assay plates, with samples run in duplicate on each plate. Human whole blood assay data represent a single replicate on an assay plate using whole blood from at least one healthy donor.\n(§2) An in vitro cellular assay was performed using human whole blood collected in heparin-containing tubes, which was used to test the ability of compounds to modulate the leukotriene pathway in human whole blood. The blood was diluted 1:1 in RPMI medium, pre-incubated for 15 min at 37° Celsius with test compounds at various concentrations, and then stimulated with calcium ionophore, A23187 (7 μg/mL), for 30 min at 37° Celsius. The samples were then centrifuged and plasma was removed. The plasma was diluted in assay buffer and LTB4 levels were measured using a commercial kit (Enzo Life Sciences). The concentration of each compound that was required for half-maximal inhibition (modulation) of recombinant enzyme activity (IC50) was calculated by a 4-parameter equation using the program GraphPad Prism (GraphPad software).", "units": {"IC50": "nM"}, "values": [{"smiles": "CC1CN(C(=O)c2ccccc2-c2ccc(-c3cnc(N)cn3)c(F)c2)CC(C)O1", "note": "(mixture of isomers) [Example 773, 5-{2′-[(2,6-Dimethylmorpholin-4-yl)carbonyl]-3-fluorobiphenyl-4-yl}pyrazin-2-amine (diastereoisomeric mixture)]", "IC50": 639}]}, {"test_system": "leukotriene pathway in human whole blood (LTB4 levels)", "assay": "Human whole blood assay (A23187-stimulated LTB4)", "assay_type": "cell-based", "settings": "Homo sapiens, human whole blood diluted 1:1 in RPMI, A23187-stimulated LTB4; read-out: LTB4 IC50 1:1", "description": "as §1, §2", "units": {"IC50": "nM"}, "values": [{"smiles": "N#CC1CCCN(S(=O)(=O)c2ccccc2-c2ccc(-c3cnc(N)cn3)c(F)c2)C1", "note": "(racemic) [Example 63, racemic 1-{[4′-(5-Aminopyrazin-2-yl)-3′-fluorobiphenyl-2-yl]sulfonyl}piperidine-3-carbonitrile]", "IC50": 28}, {"smiles": "Nc1cnc(-c2ccc(-c3ccccc3S(=O)(=O)N3CCCC(O)C3)cc2F)cn1", "note": "(racemic) [Example 70, racemic 1-{[4′-(5-Aminopyrazin-2-yl)-3′-fluorobiphenyl-2-yl]sulfonyl}piperidin-3-ol]", "IC50": 10}, {"smiles": "Nc1cnc(-c2ccc(-c3ccccc3S(=O)(=O)N3CCCC(CO)C3)cc2F)cn1", "note": "(racemic) [Example 76, racemic (1-{[4′-(5-Aminopyrazin-2-yl)-3′-fluorobiphenyl-2-yl]sulfonyl}piperidin-3-yl)methanol]", "IC50": 27}, {"smiles": "Nc1cnc(-c2ccc(-c3ccccc3S(=O)(=O)N[C@H]3CCCC[C@@H]3CO)cc2F)cn1", "note": "(racemic) [Example 121, racemic (trans)-4′-(5-Aminopyrazin-2-yl)-3′-fluoro-N-[2-(hydroxymethyl)cyclohexyl]biphenyl-2-sulfonamide]", "IC50": 10}, {"smiles": "Nc1cnc(-c2ccc(-c3ccccc3S(=O)(=O)N3C[C@H](O)[C@@H](N4CCOCC4)C3)cc2F)cn1", "note": "(racemic) [Example 187, Racemic-1-{[4′-(5-Aminopyrazin-2-yl)-3′-fluorobiphenyl-2-yl]sulfonyl}-4-morpholin-4-ylpyrrolidin-3-ol trifluoroacetic acid salt]", "IC50": 69}]}, {"biological_target": "human FLAP (Homo sapiens (Human), UniProt P20292)", "sequence (P20292 whole entry)": "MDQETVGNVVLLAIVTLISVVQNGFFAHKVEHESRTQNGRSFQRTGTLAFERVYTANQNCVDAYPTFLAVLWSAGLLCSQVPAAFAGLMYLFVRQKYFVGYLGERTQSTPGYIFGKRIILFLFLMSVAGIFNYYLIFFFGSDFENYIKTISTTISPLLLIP", "assay": "FLAP binding assay (HTRF format)", "settings": "read-out: FLAP Binding wild type HTRF Ki", "summary_of_the_method": "(§3)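 Read-out is the HTRF ratio. Each reported figure averages two assay plates on which samples were tested in duplicate.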", "units": {"Ki": "nM"}, "values": [{"smiles": "Nc1ncc(-c2ccc(-c3cccnc3S(=O)(=O)C3CCNC3)cc2F)cn1", "note": "(centres unmarked) [Example 804, 5-(2-Fluoro-4-(2-(pyrrolidin-3-ylsulfonyl)pyridin-3-yl)phenyl)pyrimidin-2-amine formic acid salt]", "Ki": 636}, {"smiles": "Nc1ncc(-c2ccc(-c3cccnc3S(=O)(=O)C3CCNCC3)cc2F)cn1", "note": "[Example 827, 5-{2-Fluoro-4-[2-(piperidin-4-ylsulfonyl)pyridin-3-yl]phenyl}pyrimidin-2-amine formic acid salt]", "Ki": "> 10000"}]}, {"biological_target": "human FLAP (Homo sapiens (Human), UniProt P20292)", "assay": "FLAP binding assay (HTRF format)", "settings": "wild type FLAP, HTRF format", "summary_of_the_method": "as §3", "units": {"Ki": "nM"}, "values": [{"smiles": "Nc1ncc(-c2ccc(-c3ccccc3C(=O)N3CCC[C@@H](O)C3)cc2F)cn1", "note": "[Example 764, (3R)-1-{[4′-(2-Aminopyrimidin-5-yl)-3′-fluorobiphenyl-2-yl]carbonyl}piperidin-3-ol]", "Ki": "> 10000"}, {"smiles": "Nc1ncc(-c2ccc(-c3ccccc3C(=O)N3CCC[C@H](O)C3)cc2F)cn1", "note": "[Example 767, (3S)-1-{[4′-(2-Aminopyrimidin-5-yl)-3′-fluorobiphenyl-2-yl]carbonyl}piperidin-3-ol]", "Ki": "> 10000"}, {"smiles": "Nc1cnc(-c2ccc(-c3ccccc3C(=O)N3CCC[C@H](O)C3)cc2F)cn1", "note": "[Example 768, (3S)-1-{[4′-(5-Aminopyrazin-2-yl)-3′-fluorobiphenyl-2-yl]carbonyl}piperidin-3-ol]", "Ki": 573}, {"smiles": "Nc1cnc(-c2ccc(-c3ccccc3C(=O)N3CC[C@@H](O)C3)cc2F)cn1", "note": "[Example 769, (3R)-1-{[4′-(5-Aminopyrazin-2-yl)-3′-fluorobiphenyl-2-yl]carbonyl}pyrrolidin-3-ol]", "Ki": 1540}, {"smiles": "Nc1ncc(-c2ccc(-c3ccccc3C(=O)N3CC[C@@H](O)C3)cc2F)cn1", "note": "[Example 770, (3R)-1-{[4′-(2-Aminopyrimidin-5-yl)-3′-fluorobiphenyl-2-yl]carbonyl}pyrrolidin-3-ol]", "Ki": "> 10000"}, {"smiles": "Nc1cnc(-c2ccc(-c3ccccc3C(=O)N3CC[C@H](O)C3)cc2F)cn1", "note": "[Example 771, (3S)-1-{[4′-(5-Aminopyrazin-2-yl)-3′-fluorobiphenyl-2-yl]carbonyl}pyrrolidin-3-ol]", "Ki": "> 10000"}, {"smiles": "Nc1ncc(-c2ccc(-c3ccccc3C(=O)N3CC[C@H](O)C3)cc2F)cn1", "note": "[Example 772, (3S)-1-{[4′-(2-Aminopyrimidin-5-yl)-3′-fluorobiphenyl-2-yl]carbonyl}pyrrolidin-3-ol]", "Ki": "> 10000"}, {"smiles": "C[C@H]1COCCN1C(=O)c1ccccc1-c1ccc(-c2cnc(N)nc2)c(F)c1", "note": "[Example 778, 5-(3-Fluoro-2′-{[(3S)-3-methylmorpholin-4-yl]carbonyl}biphenyl-4-yl)pyrimidin-2-amine]", "Ki": "> 10000"}, {"smiles": "C[C@@H]1COCCN1C(=O)c1ccccc1-c1ccc(-c2cnc(N)nc2)c(F)c1", "note": "[Example 779, 5-(3-Fluoro-2′-{[(3R)-3-methylmorpholin-4-yl]carbonyl}biphenyl-4-yl)pyrimidin-2-amine]", "Ki": "~2490"}, {"smiles": "O=C(c1ncccc1-c1ccc(-c2cnc3[nH]ccc3c2)c(F)c1)N1CCOCC1", "note": "[Example 781, 5-{2-Fluoro-4-[2-(morpholin-4-ylcarbonyl)pyridin-3-yl]phenyl}-1H-pyrrolo[2,3-b]pyridine]", "Ki": 730}, {"smiles": "Nc1ncc(-c2ccc(-c3cccnc3C(=O)N3CCOCC3)cc2F)cn1", "note": "[Example 782, 5-{2-Fluoro-4-[2-(morpholin-4-ylcarbonyl)pyridin-3-yl]phenyl}pyrimidin-2-amine]", "Ki": "> 10000"}, {"smiles": "Nc1cnc(-c2ccc(-c3cccnc3C(=O)N3CCOCC3)cc2F)cn1", "note": "[Example 783, 5-{2-Fluoro-4-[2-(morpholin-4-ylcarbonyl)pyridin-3-yl]phenyl}pyrazin-2-amine]", "Ki": "> 10000"}, {"smiles": "Nc1ncc(-c2ccc(-c3ccccc3C(=O)N3CC(O)C3)cc2F)cn1", "note": "[Example 791, [2-[4-(2-Aminopyrimidin-5-yl)-3-fluoro-phenyl]phenyl]-(3-hydroxyazetidin-1-yl)methanone]", "Ki": "> 10000"}, {"smiles": "CNC1CCN(C(=O)c2ccccc2-c2ccc(-c3cnc(N)nc3)c(F)c2)CC1", "note": "[Example 792, [2-[4-(2-Aminopyrimidin-5-yl)-3-fluoro-phenyl]phenyl]-[4-(methylamino)-1-piperidyl]methanone]", "Ki": "> 10000"}, {"smiles": "Nc1ncc(-c2ccc(-c3ccc(C(F)(F)F)cc3C(=O)N3CCC(O)CC3)cc2F)cn1", "note": "[Example 796, [2-[4-(2-Aminopyrimidin-5-yl)-3-fluoro-phenyl]-5-(trifluoromethyl)phenyl]-(4-hydroxy-1-piperidyl)methanone]", "Ki": 391}, {"smiles": "Nc1ncc(-c2ccc(-c3ccccc3C(=O)NC3CCOCC3)cc2F)cn1", "note": "[Example 797, 2-[4-(2-Aminopyrimidin-5-yl)-3-fluoro-phenyl]-N-tetrahydropyran-4-yl-benzamide]", "Ki": "> 10000"}, {"smiles": "CC(C)(C)C(=O)Nc1ncccc1-c1ccc(-c2cnc(N)nc2)c(F)c1", "note": "[Example 800, N-{3-[4-(2-Aminopyrimidin-5-yl)-3-fluorophenyl]pyridin-2-yl}-2,2-dimethylpropanamide]", "Ki": "> 10000"}, {"smiles": "CC(C)(C)C(=O)Nc1ncccc1-c1ccc(-c2cnc(N)cn2)c(F)c1", "note": "[Example 801, N-{3-[4-(5-Aminopyrazin-2-yl)-3-fluorophenyl]pyridin-2-yl}-2,2-dimethylpropanamide]", "Ki": "> 10000"}, {"smiles": "COCCCS(=O)(=O)c1ncccc1-c1ccc(-c2cnc(N)nc2)c(F)c1", "note": "[Example 817, 5-(2-Fluoro-4-(2-((3-methoxypropyl)sulfonyl)pyridine-3-yl)phenyl)pyrimidin-2-amine hydrogen chloride salt]", "Ki": 463}, {"smiles": "Nc1ncc(-c2ccc(-c3cccnc3S(=O)(=O)CCN3CCOCC3)cc2F)cn1", "note": "[Example 821, 5-(2-Fluoro-4-(2-((2-morpholinoethyl)sulfonyl)pyridine-3-yl)phenyl)pyrimidin-2-amine formic acid salt]", "Ki": "> 10000"}, {"smiles": "Nc1cnc(-c2ccc(-c3cccnc3S(=O)(=O)C3CCNCC3)cc2F)cn1", "note": "[Example 832, 5-{2-Fluoro-4-[2-(piperidin-4-ylsulfonyl)pyridin-3-yl]phenyl}pyrazin-2-amine hydrochloride]", "Ki": 1310}, {"smiles": "Nc1cnc(-c2ccc(-c3ccccc3)c(F)c2F)cn1", "note": "[Example 833, 5-(2,3-Difluorobiphenyl-4-yl)pyrazin-2-amine]", "Ki": "~500"}, {"smiles": "Nc1cnc(-c2ccc(-c3cc(C(F)(F)F)ccc3-c3cnc(N)nc3)cc2F)cn1", "note": "[Example 845, 5-[4′-(5-Aminopyrazin-2-yl)-3′-fluoro-5-(trifluoromethyl)biphenyl-2-yl]pyrimidin-2-amine]", "Ki": "> 10000"}, {"smiles": "Nc1ncc(-c2ccccc2-c2cnc(-c3cnc(N)nc3)c(F)c2)cn1", "note": "[Example 854, 5-{2-[6-(2-Aminopyrimidin-5-yl)-5-fluoropyridin-3-yl]phenyl}pyrimidin-2-amine]", "Ki": 1280}, {"smiles": "Nc1ncc(-c2ccc(-c3ccccc3-c3cnc(N)nc3)cn2)cn1", "note": "[Example 855, 5-{5-[2-(2-Aminopyrimidin-5-yl)phenyl]pyridin-2-yl}pyrimidin-2-amine]", "Ki": "> 10000"}, {"smiles": "Nc1cnc(-c2ccc(-c3cccnc3N3CCCC3)cc2F)cn1", "note": "[Example 859, 5-[2-Fluoro-4-(2-pyrrolidin-1-ylpyridin-3-yl)phenyl]pyrazin-2-amine]", "Ki": "~1250"}, {"smiles": "Nc1cnc(-c2ccc(-c3ccccc3N3CCCC3=O)cc2F)cn1", "note": "[Example 860, 1-[4′-(5-Aminopyrazin-2-yl)-3′-fluorobiphenyl-2-yl]pyrrolidin-2-one]", "Ki": "~1480"}]}]}
